Measurements taken from ChEMBL document CHEMBL1208774, “3-D-QSAR and docking studies on the neuronal choline transporter” (Bioorg Med Chem Lett, 2010).
Residue numbers refer to the chain shown, from its start.

Target: T1, High affinity choline transporter 1 (Rattus norvegicus, UniProt Q9JMD7)
T1 sequence (Q9JMD7 whole entry): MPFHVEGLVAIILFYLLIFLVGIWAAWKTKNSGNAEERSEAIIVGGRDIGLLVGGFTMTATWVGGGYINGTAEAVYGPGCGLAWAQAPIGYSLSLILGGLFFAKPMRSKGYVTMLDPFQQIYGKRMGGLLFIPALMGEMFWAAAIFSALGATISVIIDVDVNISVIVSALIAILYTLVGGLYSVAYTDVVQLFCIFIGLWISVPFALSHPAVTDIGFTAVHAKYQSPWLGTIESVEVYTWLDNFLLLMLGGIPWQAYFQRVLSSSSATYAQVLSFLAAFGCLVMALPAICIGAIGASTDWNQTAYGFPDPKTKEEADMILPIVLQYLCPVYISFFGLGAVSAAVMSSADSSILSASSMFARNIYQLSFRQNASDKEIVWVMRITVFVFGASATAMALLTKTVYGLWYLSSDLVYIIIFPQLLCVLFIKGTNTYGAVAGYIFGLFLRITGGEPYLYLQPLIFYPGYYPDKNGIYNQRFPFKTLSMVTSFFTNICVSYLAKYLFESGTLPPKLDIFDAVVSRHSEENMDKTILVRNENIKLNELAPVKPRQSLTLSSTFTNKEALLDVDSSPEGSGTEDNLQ
Assay: Binding affinity to rat choline transporter 1

SMILES	Ki [µM]
C[N+]1(C)CCO[C@@](O)(c2ccc(-c3ccc([C@@]4(O)C[N+](C)(C)CCO4)cc3)cc2)C1 [HEMICHOLINIUM DIBROMIDE]	0.01

Target: T2, High affinity choline transporter 1 (Mus musculus, UniProt Q8BGY9)
T2 sequence (Q8BGY9 whole entry): T1 sequence (Q9JMD7 whole entry) with P2S, A35P, F307Y, F386L, P467S, I513V, S519A
Assay: Inhibition of [3H]choline uptake at choline transporter 1 in mouse brain synaptosome
Type: tissue-based

SMILES	Ki [µM]
CN(C)CCO [DIMETHYLAMINOETHANOL]	55.7
C[N+]12CCC(O)(CC1)CC2	72.1
CN(C)C [TRIMETHYLAMMONIUM]	340
CC[N+]1(CCC#Cc2cc(OC)c(OC)c(OC)c2)CCCC1	0.2
CNCCO	3800
C[N+](C)(C)CCCO	2.2
Nc1ccncc1N [AMIFAMPRIDINE]	820
CCCCCCCCCCCCCCCC[n+]1ccccc1	32.1
C[N+](C)(C)C [TETRAMETHYLAMMONIUM]	30.1
OCC[N+]12CCC(CC1)CC2	0.64
CN [METHYLAMINE]	35100
C[N+]12CCC(CC1)C(=O)C2	0.521
C[N+](C)(C)c1ccccc1	75.2
COc1cc(C#CCC[N+]23CCC(CC2)C3)cc(OC)c1OC	0.05
CCCCCCCC[N+]1(CCC#Cc2cc(OC)c(OC)c(OC)c2)CCCCC1	0.23
COc1cc(C#CCC[N+]23CCC(CC2)CC3)cc(OC)c1OC	0.09
CC[N+](CC)(CC)CC [TETRYLAMMONIUM]	260
CCCCC[N+]1(CCC#Cc2cc(OC)c(OC)c(OC)c2)CCCCC1	0.02

SMILES	Ki [µM]
CCCC[N+](CCCC)(CCCC)CCCC [TETRABUTYLAMMONIUM]	1050
Cc1cc(C)nc(C)c1	107
C[n+]1cccc(C(N)=O)c1	361
C[N+]12CCC(CC1)CC2	4.7
COC(=O)CC[N+](C)(C)C	270
C1CN2CCC1CC2	40.1
CC1C(O)C2CC[N+]1(C)CC2 (configuration not stated)	210
COc1cc(C#CCC[N+](C)(C)C)cc(OC)c1OC	2
CCOC(=O)CC[N+](C)(C)C	340
CN(C)CCCO	290
CNC [DIMETHYLAMINE]	9420
CC[N+](CC)(CC)CCC#Cc1cc(OC)c(OC)c(OC)c1	0.701
C[N+](C)(C)CCCCO	310
Nc1ccncc1 [DALFAMPRIDINE]	481
CC(=O)OCCC[N+](C)(C)C	190
CC[N+]1(CCC#Cc2cc(OC)c(OC)c(OC)c2)CCCCC1	0.18
C[N+](C)(C)CCO.[Cl-] [CHOLINE CHLORIDE]	0.681
CN1CCC[C@H]1c1cccnc1 [NICOTINE]	520
